This is an account of results in the NIST ThermoML archive (doi:10.1021/je2008523).

Numbers after ± are expanded uncertainties.

Data set [1] is described as follows: refractive index (Na D-line) (dimensionless). The settings on record: 303.1 K; 101.33 kPa; Liquid; Standard Abbe refractometry.

Turning to `CN(CCO)CCO` [N-methyldiethanolamine], the mass density (298.1 K, 101.33 kPa, Liquid, Vibrating tube method) is 1038.11 ± 0.92 kg/m3. Also, for the setting “298.15 K, 101.33 kPa, Liquid, Capillary tube (Ostwald / Ubbelohde) method”, the viscosity amounted to 77.09 ± 1.8 mPa·s. For the setting “303.15 K, Pendant drop shape”, the surface tension liquid-gas is reported as 38.26 ± 0.53 mN/m. Also, the refractive index in data set [1] came to 1.46008 ± 0.00051.
